{
  "source": "paper PMC11062922",
  "about": "(Nature Chemical Biology, 2023)",
  "key": {"CIT": {"biological_target": "T1, CIT (Homo sapiens, UniProt O14578)", "T1 construct": "endogenous in cells", "T1 sequence (O14578 whole entry)": "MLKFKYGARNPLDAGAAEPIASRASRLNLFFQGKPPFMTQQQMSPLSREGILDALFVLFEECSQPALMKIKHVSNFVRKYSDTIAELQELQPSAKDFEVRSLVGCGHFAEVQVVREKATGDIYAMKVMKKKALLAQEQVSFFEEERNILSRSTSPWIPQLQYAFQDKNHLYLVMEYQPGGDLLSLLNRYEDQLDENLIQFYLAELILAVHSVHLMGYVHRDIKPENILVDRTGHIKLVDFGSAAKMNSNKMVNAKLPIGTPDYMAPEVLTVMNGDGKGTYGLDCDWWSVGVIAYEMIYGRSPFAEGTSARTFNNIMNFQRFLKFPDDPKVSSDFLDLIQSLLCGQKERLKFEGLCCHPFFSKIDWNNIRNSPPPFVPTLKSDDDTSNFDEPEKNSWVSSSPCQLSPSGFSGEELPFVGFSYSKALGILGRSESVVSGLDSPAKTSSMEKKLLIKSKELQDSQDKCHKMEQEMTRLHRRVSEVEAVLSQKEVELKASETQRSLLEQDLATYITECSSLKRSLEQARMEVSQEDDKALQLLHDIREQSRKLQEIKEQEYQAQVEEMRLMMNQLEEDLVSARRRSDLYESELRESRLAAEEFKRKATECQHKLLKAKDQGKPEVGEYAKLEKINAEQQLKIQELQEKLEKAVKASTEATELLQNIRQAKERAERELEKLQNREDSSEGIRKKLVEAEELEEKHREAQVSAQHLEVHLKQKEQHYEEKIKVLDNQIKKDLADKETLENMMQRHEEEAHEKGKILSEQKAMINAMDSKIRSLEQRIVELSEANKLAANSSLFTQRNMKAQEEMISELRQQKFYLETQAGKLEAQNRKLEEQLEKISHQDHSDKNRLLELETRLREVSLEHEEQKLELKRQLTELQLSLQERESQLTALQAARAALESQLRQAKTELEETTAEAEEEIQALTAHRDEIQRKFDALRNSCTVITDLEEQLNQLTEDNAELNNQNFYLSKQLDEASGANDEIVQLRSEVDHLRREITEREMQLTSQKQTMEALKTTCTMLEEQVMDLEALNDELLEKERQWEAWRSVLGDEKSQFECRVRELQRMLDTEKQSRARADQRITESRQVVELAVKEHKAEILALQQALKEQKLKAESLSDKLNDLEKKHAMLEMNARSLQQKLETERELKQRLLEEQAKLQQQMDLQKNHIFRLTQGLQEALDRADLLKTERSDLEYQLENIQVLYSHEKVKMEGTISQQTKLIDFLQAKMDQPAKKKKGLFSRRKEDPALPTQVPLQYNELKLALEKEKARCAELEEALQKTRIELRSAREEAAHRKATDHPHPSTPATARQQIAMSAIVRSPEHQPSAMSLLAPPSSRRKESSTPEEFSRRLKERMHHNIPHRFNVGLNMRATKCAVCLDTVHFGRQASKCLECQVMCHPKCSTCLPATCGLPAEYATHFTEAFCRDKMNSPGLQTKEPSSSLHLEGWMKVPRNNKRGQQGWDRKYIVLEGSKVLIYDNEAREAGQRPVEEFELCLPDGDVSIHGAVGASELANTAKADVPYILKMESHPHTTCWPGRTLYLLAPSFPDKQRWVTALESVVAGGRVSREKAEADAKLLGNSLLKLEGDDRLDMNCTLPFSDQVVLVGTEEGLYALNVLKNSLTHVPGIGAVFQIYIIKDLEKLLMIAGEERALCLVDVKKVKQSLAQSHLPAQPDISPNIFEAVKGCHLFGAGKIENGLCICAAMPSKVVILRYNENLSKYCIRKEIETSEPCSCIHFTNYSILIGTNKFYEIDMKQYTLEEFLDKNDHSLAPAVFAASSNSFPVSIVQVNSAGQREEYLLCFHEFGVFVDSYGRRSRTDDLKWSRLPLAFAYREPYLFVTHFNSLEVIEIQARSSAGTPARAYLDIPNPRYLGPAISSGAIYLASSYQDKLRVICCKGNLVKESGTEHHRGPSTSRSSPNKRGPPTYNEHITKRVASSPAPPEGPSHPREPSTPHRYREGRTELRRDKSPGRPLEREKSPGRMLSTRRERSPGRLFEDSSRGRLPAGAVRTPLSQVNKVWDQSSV", "test": "Kinobeads full dose-response competition binding: CIT", "details": "Gene Name CIT"}, "MAP3K5": {"biological_target": "T2, MAP3K5 (Homo sapiens, UniProt Q99683)", "T2 construct": "endogenous in cells", "T2 sequence (Q99683 whole entry)": "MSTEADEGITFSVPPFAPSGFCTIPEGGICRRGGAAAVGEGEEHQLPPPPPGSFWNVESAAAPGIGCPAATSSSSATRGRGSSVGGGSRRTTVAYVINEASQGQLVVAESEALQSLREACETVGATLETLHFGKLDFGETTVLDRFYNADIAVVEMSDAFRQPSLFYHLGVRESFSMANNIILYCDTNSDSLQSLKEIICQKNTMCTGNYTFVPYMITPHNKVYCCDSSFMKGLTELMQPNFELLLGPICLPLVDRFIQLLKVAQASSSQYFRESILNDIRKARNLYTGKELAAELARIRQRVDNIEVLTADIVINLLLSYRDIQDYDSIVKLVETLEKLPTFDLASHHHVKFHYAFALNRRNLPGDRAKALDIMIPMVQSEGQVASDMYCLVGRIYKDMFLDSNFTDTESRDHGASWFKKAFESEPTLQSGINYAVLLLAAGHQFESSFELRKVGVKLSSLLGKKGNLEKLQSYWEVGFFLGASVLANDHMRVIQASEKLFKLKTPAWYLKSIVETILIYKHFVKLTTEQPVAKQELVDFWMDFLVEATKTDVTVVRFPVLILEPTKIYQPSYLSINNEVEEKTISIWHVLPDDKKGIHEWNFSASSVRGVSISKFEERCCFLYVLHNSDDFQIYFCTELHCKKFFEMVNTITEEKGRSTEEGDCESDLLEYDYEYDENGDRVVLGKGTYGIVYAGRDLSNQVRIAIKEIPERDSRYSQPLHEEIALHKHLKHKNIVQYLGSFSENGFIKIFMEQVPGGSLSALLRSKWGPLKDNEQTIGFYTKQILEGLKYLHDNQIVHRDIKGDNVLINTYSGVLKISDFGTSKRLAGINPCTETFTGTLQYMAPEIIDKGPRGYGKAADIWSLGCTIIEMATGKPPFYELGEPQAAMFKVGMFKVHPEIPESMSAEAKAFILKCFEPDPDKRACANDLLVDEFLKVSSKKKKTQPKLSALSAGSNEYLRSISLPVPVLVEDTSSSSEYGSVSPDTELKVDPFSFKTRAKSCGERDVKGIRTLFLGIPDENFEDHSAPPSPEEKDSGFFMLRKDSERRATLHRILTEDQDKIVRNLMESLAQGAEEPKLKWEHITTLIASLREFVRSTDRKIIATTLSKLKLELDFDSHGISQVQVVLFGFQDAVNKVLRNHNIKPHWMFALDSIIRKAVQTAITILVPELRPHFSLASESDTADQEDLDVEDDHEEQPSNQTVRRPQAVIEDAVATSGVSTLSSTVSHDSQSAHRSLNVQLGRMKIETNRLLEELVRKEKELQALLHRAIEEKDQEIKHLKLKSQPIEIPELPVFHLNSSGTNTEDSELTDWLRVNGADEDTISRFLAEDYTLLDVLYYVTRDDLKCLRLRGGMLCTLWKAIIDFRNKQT", "test": "Kinobeads two-dose competition binding: MAP3K5", "details": "Drugmatrix - all 2, read-out: apparent Kd MAP3K5"}, "EPHA1": {"biological_target": "T3, EPHA1 (Homo sapiens, UniProt P21709)", "T3 construct": "endogenous in cells", "T3 sequence (P21709 26-976)": "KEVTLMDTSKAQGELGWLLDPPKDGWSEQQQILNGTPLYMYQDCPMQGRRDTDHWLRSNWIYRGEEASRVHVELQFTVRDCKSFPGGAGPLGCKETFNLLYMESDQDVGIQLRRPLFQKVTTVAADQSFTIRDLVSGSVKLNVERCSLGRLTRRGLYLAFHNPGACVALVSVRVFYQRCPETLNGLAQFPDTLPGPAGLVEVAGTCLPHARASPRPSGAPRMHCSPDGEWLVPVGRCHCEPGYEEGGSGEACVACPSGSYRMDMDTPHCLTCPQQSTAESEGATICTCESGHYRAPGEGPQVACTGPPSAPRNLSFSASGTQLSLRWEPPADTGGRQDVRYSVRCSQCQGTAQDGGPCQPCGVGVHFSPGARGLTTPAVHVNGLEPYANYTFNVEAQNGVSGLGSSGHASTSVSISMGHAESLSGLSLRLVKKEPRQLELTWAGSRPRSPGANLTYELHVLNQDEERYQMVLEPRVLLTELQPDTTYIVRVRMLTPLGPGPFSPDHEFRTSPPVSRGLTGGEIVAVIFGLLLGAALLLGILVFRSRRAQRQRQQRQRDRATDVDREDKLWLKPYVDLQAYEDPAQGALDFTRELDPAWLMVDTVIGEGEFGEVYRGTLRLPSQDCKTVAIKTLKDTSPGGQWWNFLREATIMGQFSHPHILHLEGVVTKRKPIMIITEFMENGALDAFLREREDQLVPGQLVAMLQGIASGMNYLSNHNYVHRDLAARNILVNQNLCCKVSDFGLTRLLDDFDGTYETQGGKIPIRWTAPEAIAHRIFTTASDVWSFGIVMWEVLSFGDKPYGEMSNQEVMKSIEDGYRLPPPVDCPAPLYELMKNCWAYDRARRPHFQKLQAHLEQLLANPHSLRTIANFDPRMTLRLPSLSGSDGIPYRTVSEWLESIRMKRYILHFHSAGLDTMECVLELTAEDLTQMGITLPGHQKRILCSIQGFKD", "test": "Kinobeads two-dose competition binding: EPHA1", "details": "read-out: Lestaurtinib Drugmatrix value, Gene Name EPHA1"}, "EPHB2": {"biological_target": "T4, EPHB2 (Homo sapiens, UniProt P29323)", "T4 construct": "endogenous in cells", "T4 sequence (P29323 19-1055)": "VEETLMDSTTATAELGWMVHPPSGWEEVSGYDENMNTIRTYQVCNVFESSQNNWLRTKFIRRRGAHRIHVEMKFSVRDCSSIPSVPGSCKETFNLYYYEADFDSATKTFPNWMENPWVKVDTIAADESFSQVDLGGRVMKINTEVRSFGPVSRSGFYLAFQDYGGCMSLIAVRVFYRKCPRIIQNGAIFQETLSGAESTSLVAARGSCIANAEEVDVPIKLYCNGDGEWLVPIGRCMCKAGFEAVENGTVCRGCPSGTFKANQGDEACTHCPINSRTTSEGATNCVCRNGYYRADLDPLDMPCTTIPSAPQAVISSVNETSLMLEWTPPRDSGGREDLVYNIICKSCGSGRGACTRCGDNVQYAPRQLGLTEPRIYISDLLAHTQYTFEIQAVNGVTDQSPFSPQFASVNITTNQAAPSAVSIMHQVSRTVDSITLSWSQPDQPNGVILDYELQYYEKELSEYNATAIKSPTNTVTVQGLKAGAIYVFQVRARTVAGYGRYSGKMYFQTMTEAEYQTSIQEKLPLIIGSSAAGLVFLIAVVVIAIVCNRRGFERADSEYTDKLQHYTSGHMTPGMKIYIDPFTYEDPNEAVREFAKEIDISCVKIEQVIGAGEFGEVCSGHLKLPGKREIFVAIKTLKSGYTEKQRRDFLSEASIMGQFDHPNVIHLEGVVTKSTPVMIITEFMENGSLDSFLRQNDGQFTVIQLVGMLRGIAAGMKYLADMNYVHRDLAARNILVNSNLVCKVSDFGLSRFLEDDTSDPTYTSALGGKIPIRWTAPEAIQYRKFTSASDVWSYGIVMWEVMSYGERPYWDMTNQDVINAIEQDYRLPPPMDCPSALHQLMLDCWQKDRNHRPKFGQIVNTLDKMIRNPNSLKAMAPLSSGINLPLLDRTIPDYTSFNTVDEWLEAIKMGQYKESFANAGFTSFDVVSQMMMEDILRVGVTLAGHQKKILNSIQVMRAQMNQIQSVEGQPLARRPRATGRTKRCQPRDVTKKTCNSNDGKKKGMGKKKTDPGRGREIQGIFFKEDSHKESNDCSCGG", "test": "Kinobeads two-dose competition binding: EPHB2", "details": "read-out: Lestaurtinib Drugmatrix value, Gene Name EPHB2"}, "PIM3": {"biological_target": "T5, PIM3 (Homo sapiens, UniProt Q86V86)", "T5 construct": "a mixture of lysates from five cancer cell lines; endogenous in cells", "test": "Kinobeads competition binding, Lestaurtinib control replicates: PIM3"}, "NTRK1": {"biological_target": "T6, NTRK1 (Homo sapiens, UniProt P04629)", "T6 construct": "endogenous in cells", "test": "Kinobeads competition binding, Lestaurtinib control replicates: NTRK1", "details": "read-out: Lestaurtinib Drugmatrix value, NTRK1; Gene Name NTRK1; one column per experiment number and replicate (R1-R3)"}, "RIPK2": {"biological_target": "T7, RIPK2 (Homo sapiens, UniProt O43353)", "T7 construct": "endogenous in cells", "T7 sequence (O43353 whole entry)": "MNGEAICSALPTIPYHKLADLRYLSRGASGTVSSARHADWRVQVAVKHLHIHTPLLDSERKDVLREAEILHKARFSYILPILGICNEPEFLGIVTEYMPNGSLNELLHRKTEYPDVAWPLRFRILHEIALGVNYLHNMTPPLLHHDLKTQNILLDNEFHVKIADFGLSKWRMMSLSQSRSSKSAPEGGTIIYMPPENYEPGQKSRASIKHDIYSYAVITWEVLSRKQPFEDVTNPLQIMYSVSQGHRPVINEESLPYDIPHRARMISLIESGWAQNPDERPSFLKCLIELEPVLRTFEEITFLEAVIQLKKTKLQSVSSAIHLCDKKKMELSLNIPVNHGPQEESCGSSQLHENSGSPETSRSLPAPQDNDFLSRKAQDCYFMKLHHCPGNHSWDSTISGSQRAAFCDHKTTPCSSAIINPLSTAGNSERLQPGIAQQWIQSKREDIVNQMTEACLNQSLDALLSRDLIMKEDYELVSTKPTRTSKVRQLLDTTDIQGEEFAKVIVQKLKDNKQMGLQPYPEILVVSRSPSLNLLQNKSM", "test": "Kinobeads full dose-response competition binding: RIPK2", "details": "Gene Name RIPK2"}, "TGFBR2": {"biological_target": "T8, TGFBR2 (Homo sapiens, UniProt P37173)", "T8 construct": "endogenous in cells", "T8 sequence (P37173 23-567)": "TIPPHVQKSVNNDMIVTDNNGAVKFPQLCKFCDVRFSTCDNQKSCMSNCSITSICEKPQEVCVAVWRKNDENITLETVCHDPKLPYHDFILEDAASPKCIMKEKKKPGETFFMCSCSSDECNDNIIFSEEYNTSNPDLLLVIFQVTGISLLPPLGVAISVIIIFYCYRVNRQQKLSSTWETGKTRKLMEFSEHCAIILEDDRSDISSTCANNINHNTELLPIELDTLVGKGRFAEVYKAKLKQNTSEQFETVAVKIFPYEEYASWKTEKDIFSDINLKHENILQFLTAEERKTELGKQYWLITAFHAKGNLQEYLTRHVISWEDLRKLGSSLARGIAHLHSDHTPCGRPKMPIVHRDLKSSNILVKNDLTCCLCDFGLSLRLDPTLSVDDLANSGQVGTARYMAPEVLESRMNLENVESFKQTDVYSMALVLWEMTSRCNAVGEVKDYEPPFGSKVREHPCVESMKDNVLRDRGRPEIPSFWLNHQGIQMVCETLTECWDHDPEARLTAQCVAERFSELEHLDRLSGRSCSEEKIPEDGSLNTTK", "test": "Kinobeads full dose-response competition binding: TGFBR2", "details": "Gene Name TGFBR2"}, "[1]": {"details": "EC50 with Correction, doses in nM, read-out: apparent Kd"}, "[2]": {"details": "eight-dose curve fit, doses in nM"}},
  "note": "“And” between values parts separate entries of the source, which are not always exact repeats. Equal entries are not always repeated. Where two headings read alike, the source gives them in different places.",
  "data": [
    {"smiles": "CCn1c(-c2nonc2N)nc2c(C#CC(C)(C)O)nc(OCCN)cc21", "note": "[GSK902056A]", "values": [
      {"measurement": "Relative Intensity 0.3nM", "setting": "CIT; 0.3nM compound, DMSO = 1", "result": 1.0296},
      {"measurement": "Relative Intensity 1nM", "setting": "CIT; 1nM compound, DMSO = 1", "result": 1.0023},
      {"measurement": "Relative Intensity 3nM", "setting": "CIT; 3nM compound, DMSO = 1", "result": 1.019},
      {"measurement": "Relative Intensity 10nM", "setting": "CIT; 10nM compound, DMSO = 1", "result": 1.082},
      {"measurement": "Relative Intensity 30nM", "setting": "CIT; 30nM compound, DMSO = 1", "result": 1.01},
      {"measurement": "Relative Intensity 100nM", "setting": "CIT; 100nM compound, DMSO = 1", "result": 0.9604},
      {"measurement": "Relative Intensity 300nM", "setting": "CIT; 300nM compound, DMSO = 1", "result": 0.7575},
      {"measurement": "Relative Intensity 1000nM", "setting": "CIT; 1000nM compound, DMSO = 1", "result": 0.5648},
      {"measurement": "Kd", "setting": "CIT; [1]", "result": 279, "unit": "nM"},
      {"measurement": "EC50", "setting": "CIT; [2]", "result": 279, "unit": "nM"}
    ]},
    {"smiles": "CC(C)N1CC(=O)N(C)c2cnc(Nc3cccc(S(=O)(=O)CCN4CCOCC4)c3)nc21", "note": "[BI00009348]", "values": [
      {"measurement": "potency estimated from few doses", "setting": "MAP3K5", "result": "> 1000", "unit": "nM"}
    ]},
    {"smiles": "C[C@]12O[C@H](C[C@]1(O)CO)n1c3ccccc3c3c4c(c5c6ccccc6n2c5c31)CNC4=O", "note": "[Lestaurtinib]", "values": [
      {"measurement": "potency estimated from few doses", "setting": "EPHA1", "result": 297, "unit": "nM"},
      {"measurement": "potency estimated from few doses", "setting": "EPHB2", "result": 257, "unit": "nM"},
      {"measurement": "potency estimated from few doses", "setting": "PIM3; read-out: Lestaurtinib Drugmatrix value, PIM3, Gene Name PIM3; one column per experiment number and replicate (R1-R3)", "result": 611, "unit": "nM"},
      {"measurement": "potency estimated from few doses", "setting": "PIM3; read-out: Lestaurtinib Drugmatrix value, PIM3; Gene Name PIM3; one column per experiment number and replicate (R1-R3)", "result": "656 nM and 795 nM"},
      {"measurement": "potency estimated from few doses", "setting": "NTRK1", "result": 772, "unit": "nM"}
    ]},
    {"smiles": "NCc1ccc(-c2nc(-c3ccncc3)c(-c3ccc(Cl)c(O)c3)[nH]2)cc1", "note": "[SB-476429-A]", "values": [
      {"measurement": "Relative Intensity 0.3nM", "setting": "RIPK2; 0.3nM compound, DMSO = 1", "result": 0.9341},
      {"measurement": "Relative Intensity 1nM", "setting": "RIPK2; 1nM compound, DMSO = 1", "result": 0.8676},
      {"measurement": "Relative Intensity 3nM", "setting": "RIPK2; 3nM compound, DMSO = 1", "result": 0.8459},
      {"measurement": "Relative Intensity 10nM", "setting": "RIPK2; 10nM compound, DMSO = 1", "result": 0.8036},
      {"measurement": "Relative Intensity 30nM", "setting": "RIPK2; 30nM compound, DMSO = 1", "result": 0.6574},
      {"measurement": "Relative Intensity 100nM", "setting": "RIPK2; 100nM compound, DMSO = 1", "result": 0.3411},
      {"measurement": "Relative Intensity 300nM", "setting": "RIPK2; 300nM compound, DMSO = 1", "result": 0.1841},
      {"measurement": "Relative Intensity 1000nM", "setting": "RIPK2; 1000nM compound, DMSO = 1", "result": 0.1065},
      {"measurement": "Kd", "setting": "RIPK2; [1]", "result": 28.8, "unit": "nM"},
      {"measurement": "EC50", "setting": "RIPK2; [2]", "result": 55.9, "unit": "nM"},
      {"measurement": "Relative Intensity 0.3nM", "setting": "TGFBR2; 0.3nM compound, DMSO = 1", "result": 0.9776},
      {"measurement": "Relative Intensity 1nM", "setting": "TGFBR2; 1nM compound, DMSO = 1", "result": 1.003},
      {"measurement": "Relative Intensity 3nM", "setting": "TGFBR2; 3nM compound, DMSO = 1", "result": 1.034},
      {"measurement": "Relative Intensity 10nM", "setting": "TGFBR2; 10nM compound, DMSO = 1", "result": 1.093},
      {"measurement": "Relative Intensity 30nM", "setting": "TGFBR2; 30nM compound, DMSO = 1", "result": 0.9102},
      {"measurement": "Relative Intensity 100nM", "setting": "TGFBR2; 100nM compound, DMSO = 1", "result": 0.8621},
      {"measurement": "Relative Intensity 300nM", "setting": "TGFBR2; 300nM compound, DMSO = 1", "result": 0.7152},
      {"measurement": "Relative Intensity 1000nM", "setting": "TGFBR2; 1000nM compound, DMSO = 1", "result": 0.41},
      {"measurement": "Kd", "setting": "TGFBR2; [1]", "result": 767, "unit": "nM"},
      {"measurement": "EC50", "setting": "TGFBR2; [2]", "result": 871, "unit": "nM"}
    ]}
  ]
}
